Measurements from PubChem BioAssay AID248 (DTP/NCI, 2004).
Values joined by “and” are separate entries in the source; they are usually repeats but may differ in a detail not shown here. Equal values may be shown once. Inconclusive results and toxic doses are left out. Cut-off read from the data, not from the text of the source: active = T/C of 150% or more; inactive = T/C below 125%.

Test system: L1210 leukemia ip in BDF1 mice, survival T/C
Assay: NCI In Vivo Anticancer Drug Screen. Data for tumor model L1210 Leukemia (intraperitoneal) in B6D2F1 (BDF1) mice
Details: endpoint: mean survival time, higher = longer survival
How it was run: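 Ratio derived from survival: compound-dosed mice over vehicle-dosed mice, all bearing a transplantable tumor.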

[1] = dose: 100.0 mg/kg/injection, schedule: Q01DX001 (ip), vehicle: carboxymethylcellulose (CMC)
[2] = dose: 100.0 mg/kg/injection, schedule: Q04DX003 (ip), vehicle: saline with Tween-80
[3] = dose: 200.0 mg/kg/injection, schedule: Q01DX001 (ip), vehicle: carboxymethylcellulose (CMC)
[4] = dose: 400.0 mg/kg/injection, schedule: Q01DX001 (ip), vehicle: carboxymethylcellulose (CMC)
[5] = dose: 100.0 mg/kg/injection, schedule: Q01DX001 (ip), vehicle: gum acacia
[6] = dose: 400.0 mg/kg/injection, schedule: Q01DX001 (ip), vehicle: gum acacia
[7] = dose: 100.0 mg/kg/injection, schedule: Q01DX001 (ip), vehicle: saline
[8] = dose: 100.0 mg/kg/injection, schedule: Q01DX009 (ip), vehicle: Klucel (hydroxypropylcellulose) (HPC)
[9] = dose: 200.0 mg/kg/injection, schedule: Q01DX009 (ip), vehicle: Klucel (hydroxypropylcellulose) (HPC)
[10] = dose: 400.0 mg/kg/injection, schedule: Q01DX009 (ip), vehicle: Klucel (hydroxypropylcellulose) (HPC)
[11] = dose: 100.0 mg/kg/injection, schedule: Q04DX003 (ip), vehicle: Klucel (hydroxypropylcellulose) (HPC)
[12] = dose: 200.0 mg/kg/injection, schedule: Q04DX003 (ip), vehicle: Klucel (hydroxypropylcellulose) (HPC)
[13] = dose: 400.0 mg/kg/injection, schedule: Q04DX003 (ip), vehicle: Klucel (hydroxypropylcellulose) (HPC)
[14] = dose: 100.0 mg/kg/injection, schedule: Q04DX002 (ip), vehicle: Klucel (hydroxypropylcellulose) (HPC)

Measured: T/C

CC1C2C=CC(C2)C1C(=O)O (stereo unspecified)
inactive: [1] 98 % of control | [2] 96 % of control and 97 % of control and 88 % of control | [3] 96 % of control | dose: 200.0 mg/kg/injection, schedule: Q04DX003 (ip), vehicle: saline with Tween-80 89 % of control and 92 % of control and 91 % of control | [4] 96 % of control | dose: 400.0 mg/kg/injection, schedule: Q04DX003 (ip), vehicle: saline with Tween-80 99 % of control and 97 % of control

CO/N=C/c1ccc([N+](=O)[O-])s1
inactive: dose: 100.0 mg/kg/injection, schedule: Q04DX003 (ip), vehicle: saline 106 % of control | dose: 200.0 mg/kg/injection, schedule: Q04DX003 (ip), vehicle: saline 95 % of control | dose: 400.0 mg/kg/injection, schedule: Q04DX003 (ip), vehicle: saline 98 % of control

CCNC(=O)Nc1cccc(NC(=O)C(=O)O)c1 (tested in a mixture with another compound)
inactive: [5] 87 % of control | dose: 200.0 mg/kg/injection, schedule: Q01DX001 (ip), vehicle: gum acacia 97 % of control | [6] 96 % of control

N#C/C(=C(/C#N)c1ccccc1)c1ccccc1
inactive: dose: 100.0 mg/kg/injection, schedule: Q01DX001 (ip), vehicle: saline with Tween-80 95 % of control | dose: 200.0 mg/kg/injection, schedule: Q01DX001 (ip), vehicle: saline with Tween-80 93 % of control | dose: 400.0 mg/kg/injection, schedule: Q01DX001 (ip), vehicle: saline with Tween-80 91 % of control

Cc1csc2nccc(Cl)c12
inactive: dose: 50.0 mg/kg/injection, schedule: Q04DX002 (ip), vehicle: saline with Tween-80 98 % of control | dose: 100.0 mg/kg/injection, schedule: Q04DX002 (ip), vehicle: saline with Tween-80 91 % of control

CC(COc1cc(Cl)c(Cl)cc1Cl)OC(=O)COc1ccc(Cl)cc1Cl (stereo unspecified)
inactive: [7] 88 % of control | dose: 200.0 mg/kg/injection, schedule: Q01DX001 (ip), vehicle: saline 95 % of control | dose: 400.0 mg/kg/injection, schedule: Q01DX001 (ip), vehicle: saline 95 % of control

CN1C(C)(C)CC(O)(C(O)(c2ccccc2)c2ccccc2)CC1(C)C
inactive: dose: 100.0 mg/kg/injection, schedule: Q04DX003 (ip), vehicle: acetone 98 % of control

COc1ccc(/C=N/NC(=O)/C=C/c2ccccc2)c(OC)c1
inactive: [8] 97 % of control | [9] 98 % of control | [10] 92 % of control

CC1CCC2(O)C3(C)CC(=O)OC2(C1O)C1(O)C(C)C(O)(C(C)C)C(O)C31O (stereo unspecified)
inactive: dose: 5.0 mg/kg/injection, schedule: Q01DX001 (ip), vehicle: saline 101 % of control

O=c1cc(Nc2ccc(Cl)cc2)[nH]c(=O)[nH]1
inactive: [5] 101 % of control | [6] 101 % of control

O=Cc1ccc2cc(Cl)ccc2n1
inactive: dose: 100.0 mg/kg/injection, schedule: Q01DX001 (ip), vehicle: other 93 % of control | dose: 200.0 mg/kg/injection, schedule: Q01DX001 (ip), vehicle: other 110 % of control | dose: 400.0 mg/kg/injection, schedule: Q01DX001 (ip), vehicle: other 106 % of control

CCOC(=O)Nc1ccccc1
inactive: [8] 97 % of control | [11] 93 % of control | [9] 103 % of control | [12] 93 % of control | [10] 103 % of control | [13] 88 % of control

CN(N=O)c1ccc(/C=C2\C=Cc3ccccc32)cc1
inactive: dose: 50.0 mg/kg/injection, schedule: Q01DX001 (ip), vehicle: carboxymethylcellulose (CMC) 96 % of control | [1] 93 % of control | [3] 96 % of control | [4] 98 % of control

O=[N+]([O-])c1ccc2c(c1)Cc1c-2cc(I)c(O)c1I
inactive: [1] 96 % of control | [3] 98 % of control | [4] 98 % of control

CC(C)(C)OC(=O)NNC(=O)C(CSC(c1ccccc1)c1ccccc1)N1C(=O)c2ccccc2C1=O (stereo unspecified)
inactive: [8] 101 % of control | [11] 90 % of control | [9] 94 % of control | [12] 94 % of control | [10] 101 % of control | [13] 99 % of control

NCc1cccc(NC(=O)COc2cccc(Cl)c2)c1
inactive: dose: 25.0 mg/kg/injection, schedule: Q04DX002 (ip), vehicle: Klucel (hydroxypropylcellulose) (HPC) 100 % of control | dose: 50.0 mg/kg/injection, schedule: Q04DX002 (ip), vehicle: Klucel (hydroxypropylcellulose) (HPC) 111 % of control | [14] 100 % of control

CC(C)CCNCC(C)(C)OC(=O)c1ccc(N)cc1
inactive: dose: 10.0 mg/kg/injection, schedule: Q01DX001 (ip), vehicle: saline 112 % of control | dose: 20.0 mg/kg/injection, schedule: Q01DX001 (ip), vehicle: saline 100 % of control | dose: 40.0 mg/kg/injection, schedule: Q01DX001 (ip), vehicle: saline 102 % of control

Cc1cccn(C(=O)c2ccccc2)c1=N
inactive: [1] 100 % of control | [3] 96 % of control | [4] 102 % of control

CC1=NC(C(=O)Cl)NN1c1ccccc1 (stereo unspecified)
inactive: dose: 25.0 mg/kg/injection, schedule: Q01DX009 (ip), vehicle: saline 101 % of control | dose: 25.0 mg/kg/injection, schedule: Q04DX003 (ip), vehicle: saline with Tween-80 96 % of control | dose: 50.0 mg/kg/injection, schedule: Q01DX009 (ip), vehicle: saline 97 % of control | dose: 50.0 mg/kg/injection, schedule: Q04DX003 (ip), vehicle: saline with Tween-80 101 % of control | [7] 93 % of control | dose: 100.0 mg/kg/injection, schedule: Q01DX009 (ip), vehicle: saline 95 % of control | [2] 98 % of control

CN(C)C(=S)SSSSC(=S)N(C)C
inactive: [14] 108 % of control | dose: 200.0 mg/kg/injection, schedule: Q04DX002 (ip), vehicle: Klucel (hydroxypropylcellulose) (HPC) 108 % of control | dose: 400.0 mg/kg/injection, schedule: Q04DX002 (ip), vehicle: Klucel (hydroxypropylcellulose) (HPC) 99 % of control and 90 % of control

COC(=O)CS(=O)(=O)C/C(=N\Nc1ccccc1)c1ccccc1
inactive: dose: 75.0 mg/kg/injection, schedule: Q01DX001 (ip), vehicle: saline 104 % of control | dose: 150.0 mg/kg/injection, schedule: Q01DX001 (ip), vehicle: saline 92 % of control | dose: 300.0 mg/kg/injection, schedule: Q01DX001 (ip), vehicle: saline 98 % of control
